{"source": "patent US11291739B2", "about": "“System and methods for sterilizing enclosed spaces using ozone” (Gene Therapy Systems, Inc., priority 2015, dated 2022)", "key": {"[1]": {"system": "E. coli K-12 cells (strain DH5)", "assay": "Sterilization efficacy on LB agar plates loaded with E. coli in cell culture chamber", "format": "cell-based", "method": "(§1) In tests #2 and #3, represented by lines 520 and 530, respectively, both the ozone generator and an ozone degrader were present in the cell culture chamber. The ozone degrader was formed of three activated carbon filters. With the ozone degrader present, the ozone generator was unable to achieve the peak ozone concentration seen in test #1. In tests #2 and #3, the ozone generator was run for 120 minutes and the concentration of ozone noticeably plateaued. The air within the cell culture chamber reached a peak ozone concentration of approximately 140-150 ppm ozone. After the ozone generator was turned off, the ozone began to break down at an accelerated rate with the activated carbon filters present. In both tests #2 and #3, the ozone levels reached a level of 0.01 ppm ozone within 15 minutes.\nWhile the peak ozone concentrations reached in tests #2 and #3 were noticeably lower than the peak ozone concentration of test #1, the ozone levels in tests #2 and #3 were at least sufficient to achieve sterilization. In each of tests #2 and #3, sterilization efficacy was measured with the assistance of LB agar plates loaded with E. coli bacteria. As part of the experiment, E. coli K-12 cells (strain DH5) were grown overnight at 37° C. and the stationary phase was reached. […] The quantity of E. coli present was then analyzed and a photograph of each plate was taken."}, "bacteriophage T1": {"system": "bacteriophage T1", "assay": "Effect of ozone on bacteriophage T1 spotted on LB agar plates", "format": "cell-based", "settings": "ozone 4 hours, peak less than 150 ppm, silver-coated mesh generator; 10^6-10^9 pfu/mL spots; DH5 E. coli overlay, 72 hours", "method": "In Experiment 2, the effect of ozone on bacteriophage T1 was studied. In the experiment, 2.5 μL of purified bacteriophage T1 was spotted in four quadrants of two LB agar plates—a test plate 610 and a control plate 620, shown in FIG. 11. The bacteriophage concentrations on each of the two plates were (clockwise from the spot in the upper right quadrant): 10^9 pfu/mL, 10^8 pfu/mL, 10^7 pfu/mL, and 10^6 pfu/mL.\nThe test plate 610 was placed in an incubator chamber containing both an ozone generator and an ozone degrader. The ozone generator included two ceramic plates surrounded substantially by a silver-coated metal mesh. The ozone generator was activated and the test plate 610 was treated with ozone for 4 hours. The ozone generator was then turned off, and the ozone degrader, formed of activated carbon filters, accelerated the conversion of ozone to oxygen. The peak ozone concentration level generated within the incubator chamber was less than 150 ppm ozone.\nThe control plate 620 was placed in a different incubator chamber and left untreated. After the ozone generation and degradation cycle completed in the incubator chamber containing the test plate 610, 1 mL of stationary DH5 E. coli bacteria and top agar were added to each plate and incubated at room temperature for 72 hours. The photograph in FIG. 11 was taken immediately following this 72-hour period."}, "[2]": {"assay": "Ozone breakdown over time in enclosed cell culture chamber (calibrated ozone analyzer)", "format": "physicochemical", "method": "In Experiment 1, an 1800 mg/hour ozone generator was placed in a 5.5 cubic feet cell culture. The ozone level within the chamber was monitored using a calibrated ozone analyzer. Ozone measurements were captured every 10 seconds. The experimental results, as represented by ozone level over time, are provided in the line graph of FIG. 10A. In test #1, represented by line 510, the ozone generator was run for 80 minutes and achieved a peak ozone concentration within the cell culture chamber of approximately 325 ppm. After the ozone generator was turned off, the ozone was left to break down naturally within the enclosed cell culture chamber. It took approximately 28 hours for the ozone to breakdown to 0.01 ppm ozone.\nas §1, with “After the ozone generator was turned off, the ozone began to break down at an accelerated rate with the activated carbon filters present. In both tests #2 and #3, the ozone levels reached a level of 0.01 ppm ozone within 15 minutes.” left out"}, "[3]": {"settings": "cited from earlier work"}}, "note": "Read-outs that look alike come from different tables or passages of the source."}
{"compound": "O=[O+][O-]", "note": "[ozone]", "values": [{"measurement": "E. coli kill rate", "setting": "[1]; test #2, ozone 120 minutes, peak approximately 140-150 ppm, then 15 minutes degradation, plates incubated at 37° C. overnight", "result": 100, "unit": "%"}, {"measurement": "quantity of E. coli present after treatment", "setting": "[1]; test #2 test dish, control dish showed confluent growth", "result": "no E. coli was detected"}, {"measurement": "survival of the T1-phage", "setting": "bacteriophage T1", "result": "negligible survival"}, {"measurement": "time for ozone to break down to 0.01 ppm", "setting": "[2]; test #1, natural breakdown from approximately 325 ppm, no ozone degrader, 5.5 cubic feet chamber", "result": "approximately 28 hours"}, {"measurement": "time for ozone levels to reach 0.01 ppm", "setting": "[2]; tests #2 and #3, from approximately 140-150 ppm, three activated carbon filters present", "result": "≤ 15", "unit": "min"}, {"measurement": "half-life", "setting": "[3]; in the air", "result": "36 to 72", "unit": "h"}, {"measurement": "half-life", "setting": "[3]; in water", "result": "0.13 to 0.5", "unit": "h"}]}
